Measurements: patent US12421212B2, “Substituted benzenecarboxamides as IL-17A modulators” (DiCE Alpha, Inc., priority 2019, dated 2025)

Molecular target: T1, IL-17A/A (Homo sapiens, UniProt Q16552)
T1 construct: purchased Genscript Z03228
T1 sequence (Q16552 24-155): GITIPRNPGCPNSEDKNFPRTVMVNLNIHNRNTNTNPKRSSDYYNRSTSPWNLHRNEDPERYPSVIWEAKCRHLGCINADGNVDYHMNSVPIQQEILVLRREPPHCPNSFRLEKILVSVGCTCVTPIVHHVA
Experiment: IL-17A/A HEK-Blue Cell Assay
Assay type: cell-based
Conditions: HEK-Blue IL-17A reporter cell line, SEAP readout at A630, 20 hours incubation with IL-17A/A, top concentration 10 uM, 1 uM or 0.3 uM; for IC50: read-out: IL-17A/A inhibition (pIC50) (converted)

IC50 [nM]	SMILES	IL-17A/A inhibition (pIC50)
< 10	CCn1nccc1C(=O)N[C@H](C(=O)Nc1ccc([C@H](C)[C@@H](NC(=O)C(C)(F)F)C(=O)N2CCN(C)[C@H](C)C2)cc1F)[C@H]1CC[C@H](C)CC1 [Compound 480]	–
10 to 100	CCC(=O)N[C@@H](C(=O)N1CCN(C)CC1)[C@@H](C)c1ccc(NC(=O)[C@@H](NC(=O)c2nonc2C)[C@H]2CC[C@H](C)CC2)c(F)c1 [Compound 582]	–
10 to 100	CCC(=O)N[C@H](Cc1ccc(NC(=O)[C@@H](NC(=O)c2ccnn2CC)C2CCCCCC2)c(F)c1)C(=O)N1CCN(C)CC1 [Compound 235]	–
< 10	CCC(=O)N[C@@H](C(=O)N1CCN(C)CC1)[C@@H](C)c1ccc(NC(=O)[C@@H](NC(=O)c2conc2C(C)C)[C@H]2CC[C@H](C)CC2)c(F)c1 [Compound 284]	–
10 to 100	CCC(=O)N[C@H](Cc1ccc(NC(=O)[C@@H](NC(=O)C(F)(F)c2ccc(OC)nc2)C2CCCCCC2)c(F)c1)C(=O)N1CCN(C)CC1 [Compound 214]	–
–	CCn1nccc1C(=O)N[C@H](C(=O)Nc1ccc([C@H](C)[C@@H](NC(=O)NC2CC2)C(=O)N2CCN(C)CC2)cc1F)[C@H]1CC[C@H](C)CC1 [Compound 404]	B (8>B≥7 as B)
100 to 10000	CCC(=O)N[C@@H](C(=O)N1CCN(C)CC1)[C@@H](C)c1ccc(NC(=O)[C@@H](NC(=O)c2csc3ccncc23)C2CCCCC2)c(F)c1 [Compound 631]	–
10 to 100	CCn1nccc1C(=O)N[C@H](C(=O)Nc1ccc([C@H](C)[C@@H](NC(=O)c2cccs2)C(=O)N2CCN(C)CC2)cc1F)C1CCCCC1 [Compound 304]	–
< 10	Cc1nonc1C(=O)N[C@H](C(=O)Nc1ccc([C@H](C)[C@@H](NC(=O)c2cnns2)C(=O)N2CCN(C)CC2)cc1F)[C@H]1CC[C@H](C)CC1 [Compound 583]	–
10 to 100	CCC(=O)N[C@@H](C(=O)N1CCN(C)CC1)[C@@H](C)c1ccc(NC(=O)[C@@H](NC(=O)c2csc3ccccc23)C2CCCCC2)c(F)c1 [Compound 248]	–
10 to 100	CCC(=O)N[C@@H](C(=O)NCC1(C)CC1)[C@@H](C)c1ccc(NC(=O)[C@@H](NC(=O)c2ccnn2CC)[C@H]2CC[C@H](C)CC2)c(F)c1 [Compound 346]	–
–	CCC(=O)N[C@H](Cc1ccc(NC(=O)[C@@H](NC(=O)c2c3c(nn2CC)CCC3)C2CCCCC2)c(F)c1)C(=O)N1CCN(C)CC1 [Compound 774]	X1b (compounds were evaluated up to 10 uM and inhibited activity at 10 uM by less than 20%)
100 to 10000	CCC(=O)N[C@H](Cc1ccc(NC(=O)[C@@H](NC(=O)c2ccnn2CC)C2CCCCC2)c(F)c1)C(=O)N1CCN(CCF)CC1 [Compound 679]	–
10 to 100	CCC(=O)N[C@@H](C(=O)N1CCN(C)CC1)[C@@H](C)c1ccc(NC(=O)[C@@H](NC(=O)c2ccnn2CC)[C@H]2CC[C@H](C)CC2)cc1 [Compound 299]	–
10 to 100	COc1cncc(C(F)(F)C(=O)N[C@H](C(=O)Nc2ccc(C[C@@H](NC(=O)c3cnns3)C(=O)N3CCN(C)CC3)cc2F)C2CCCCC2)c1 [Compound 324]	–
< 10	CCC(=O)N[C@@H](C(=O)N1CCN(C)CC1)[C@@H](C)c1ccc(NC(=O)C(NC(=O)c2ccnn2CC)C(CC)c2ccc(F)cc2)c(F)c1 (single isomer, unassigned) [Compound 555]	–
–	CCC(=O)N[C@H](Cc1ccc(NC(=O)[C@@H](NC(=O)c2ccnn2CC)C2CCCCC2)c(F)c1)C(=O)N1CC2(CN(C)C2)C1 [Compound 750]	X2b (compounds were evaluated up to 1 uM and inhibited activity at 1 uM by less than 20%)
100 to 10000	CCC(=O)N[C@H](Cc1ccc(NC(=O)[C@@H](NC(=O)c2ccnn2CC)C2CCCCC2)c(F)c1)C(=O)N1CC(N(C)C)C1 [Compound 667]	–
100 to 10000	CCC(=O)N[C@H](Cc1ccc(NC(=O)[C@@H](NC(=O)c2conc2CC)C2CCC(F)(F)CC2)c(F)c1)C(=O)N1CCN(C)CC1 [Compound 692]	–
< 10	CC(C)n1nccc1C(=O)N[C@@H](C(=O)N1CCN(C)CC1)[C@@H](C)c1ccc(NC(=O)[C@@H](NC(=O)c2ccnn2C(C)C)[C@H]2CC[C@H](C)CC2)c(F)c1 [Compound 330]	–
–	CCC(=O)N[C@@H](C(=O)N1CCN(C)CC1)[C@@H](C)c1ccc(NC(=O)C(NC(=O)c2nonc2CC)C(C)C2CCC(C)CC2)c(F)c1 (single isomer, unassigned) [Compound 613]	X2b (compounds were evaluated up to 1 uM and inhibited activity at 1 uM by less than 20%)
< 10	CCc1nonc1C(=O)N[C@H](C(=O)Nc1ccc([C@H](C)[C@@H](NC(=O)c2cnns2)C(=O)N2CCN(C)CC2)cc1F)[C@H]1CC[C@H](C)CC1 [Compound 408]	–
< 10	CCn1nccc1C(=O)N[C@H](C(=O)Nc1ccc([C@H](C)[C@@H](NC(=O)CC2CC2)C(=O)N2CCN(C)CC2)cc1F)C1CCCCCC1 [Compound 340]	–

IC50 [nM]	SMILES	IL-17A/A inhibition (pIC50)
10 to 100	CCC(=O)N[C@@H](C(=O)N1CCN(C)CC1)[C@@H](C)c1ccc(NC(=O)[C@@H](NC(=O)C(F)(F)c2ccc(OC)nc2)C2CCCCC2)c(F)c1 [Compound 218]	–
10 to 100	CCn1nccc1C(=O)N[C@H](C(=O)Nc1ccc([C@H](C)[C@@H](NC(=O)C2(F)CCC2)C(=O)N2CCN(C)[C@H](C)C2)cc1F)[C@H]1CC[C@H](C)CC1 [Compound 482]	–
100 to 10000	CCn1nccc1C(=O)N[C@H](C(=O)Nc1ccc([C@H](C)[C@@H](NC(=O)c2cc(C#N)n[nH]2)C(=O)N2CCN(C)CC2)cc1F)C1CCCCC1 [Compound 655]	–
< 10	CCC(=O)N[C@@H](C(=O)N1CCN(Cc2ccccn2)CC1)[C@@H](C)c1ccc(NC(=O)[C@@H](NC(=O)C(F)(F)c2cccc(C#N)c2)C2CCCCC2)c(F)c1 [Compound 363]	–
10 to 100	CCC(=O)N[C@@H](C(=O)N1CCC(O)CC1)[C@@H](C)c1ccc(NC(=O)[C@@H](NC(=O)c2cnn(C3CCCC3)c2)[C@H]2CC[C@H](C)CC2)c(F)c1 [Compound 531]	–
< 10	CC(C)n1nccc1C(=O)N[C@H](C(=O)Nc1ccc([C@H](C)[C@@H](NC(=O)c2ccnn2C2CCC2)C(=O)N2CCN(C)CC2)cc1F)[C@H]1CC[C@H](C)CC1 [Compound 398]	–
10 to 100	CCC(=O)N[C@@H](C(=O)N1CCOCC1)[C@@H](C)c1ccc(NC(=O)[C@@H](NC(=O)C(F)(F)c2cccc(C#N)c2)C2CCCCC2)c(F)c1 [Compound 352]	–
–	CCC(=O)N[C@@H](C(=O)N1CCN(C)CC1)[C@@H](C)c1ccc(NC(=O)C(NC(=O)c2ccnn2CC)C(OC)c2ccc(F)cc2)c(F)c1 (single isomer, unassigned) [Compound 608]	X3b (compounds were evaluated up to 0.3 uM and inhibited activity at 0.3 uM by less than 20%)
10 to 100	COc1cncc(C(F)(F)C(=O)N[C@H](C(=O)Nc2ccc([C@H](C)[C@@H](NC(=O)c3cnns3)C(=O)N3CCN(C)CC3)cc2F)C2CCCCC2)c1 [Compound 309]	–
10 to 100	C[C@@H](c1ccc(NC(=O)[C@@H](NC(=O)c2coc3ccncc23)[C@H]2CC[C@H](C)CC2)c(F)c1)[C@@H](NC(=O)c1cnns1)C(=O)N1CCN(C)CC1 [Compound 526]	–
10 to 100	CCc1nonc1C(=O)N[C@H](C(=O)Nc1ccc([C@H](C)C(NC(=O)C(C)F)C(=O)N2CCN(C)[C@@H](C)C2)cc1F)[C@H]1CC[C@H](C)CC1 (single isomer, unassigned) [Compound 595]	–
–	CCC(=O)N[C@H](Cc1ccc(NC(=O)[C@@H](NC(=O)c2cnc(C(=O)NC)[nH]2)C2CCCCC2)c(F)c1)C(=O)N1CCN(C)CC1 [Compound 781]	X1b (compounds were evaluated up to 10 uM and inhibited activity at 10 uM by less than 20%)
100 to 10000	CCC(=O)N[C@@H](C(=O)N1CCN(C)CC1)[C@@H](C)c1ccc(NC(=O)[C@@H](NC(=O)Cc2ccc(CC(=O)O)cc2)C2CCCCC2)c(F)c1 [Compound 769]	–
< 10	CCn1nccc1C(=O)N[C@H](C(=O)Nc1ccc([C@H](C)[C@@H](NC(=O)c2cnns2)C(=O)N2CCN(Cc3ccccc3)CC2)cc1F)[C@H]1CC[C@H](C)CC1 [Compound 441]	–
100 to 10000	CCn1nccc1C(=O)N[C@H](C(=O)Nc1ccc([C@H](C)[C@@H](NC(=O)c2cc(C#N)cs2)C(=O)N2CCN(C)CC2)cc1F)C1CCCCC1 [Compound 624]	–
100 to 10000	CCC(=O)N[C@H](Cc1ccc(NC(=O)[C@@H](NC(=O)c2ccnn2CC)C2CCCCC2)c(F)c1)C(=O)N1CCN(C(C)C)CC1 [Compound 651]	–
10 to 100	CCn1nccc1C(=O)N[C@H](C(=O)Nc1ccc([C@H](C)[C@@H](NC(=O)C2(F)CC2)C(=O)N2CCN(C)CC2)cc1F)[C@H]1CC[C@H](C)CC1 [Compound 406]	–
10 to 100	CCC(=O)N[C@@H](C(=O)N1CCN(C)CC1)[C@@H](C)c1ccc(NC(=O)C(NC(=O)c2ccnn2C(C)C)C(C)c2ccc(F)cc2)c(F)c1 (stereo partly shown) [Compound 393]	–
< 10	CCn1nccc1C(=O)N[C@H](C(=O)Nc1ccc([C@H](C)C(NC(=O)C(F)C2CC2)C(=O)N2CCN(C)[C@H](C)C2)cc1F)[C@H]1CC[C@H](C)CC1 (single isomer, unassigned) [Compound 602]	–
10 to 100	CCn1nccc1C(=O)N[C@H](C(=O)Nc1ccc([C@H](C)[C@@H](NC(=O)C(C)(F)F)C(=O)N2CCN(C)CC2)cc1F)[C@H]1CC[C@H](C)CC1 [Compound 471]	–
< 10	CCC(=O)N[C@@H](C(=O)N1CCN(C)CC1)[C@@H](C)c1ccc(NC(=O)C(NC(=O)C(F)(F)c2ccc(OC)nc2)[C@@H](C)C2CCCCC2)c(F)c1 (stereo partly shown) [Compound 394]	–
–	CCC(=O)N[C@H](Cc1ccc(NC(=O)[C@@H](NC(=O)Cc2ccc(OC)nc2)C2CCCCC2)c(F)c1)C(=O)N1CCN(C)CC1 [Compound 711]	X2a (compounds were evaluated up to 1 uM and did not inhibit activity by >80%, however they showed some activity at 1 uM (less than 80% and more than 20%))
10 to 100	CCC(=O)N[C@@H](C(=O)N1CCC(C)(O)CC1)[C@@H](C)c1ccc(NC(=O)[C@@H](NC(=O)C(F)(F)c2cncs2)[C@H]2CC[C@H](C)CC2)c(F)c1 [Compound 378]	–
